Measurements published in US20100240745A1, “METHOD OF TREATMENT OF INFLAMMATION IN HYPERTENSIVE PATIENTS” (NICOX S.A., priority 2009, published 2010).
Marks after values point to notes of the source that are not given here.

Assay: 13-week double-blind, randomized clinical trial: office systolic blood pressure (SBP) in osteoarthritic patients with hypertension treated with renin-angiotensin system blockers
Format: in vivo, human
Conditions: for Difference in mean changes of SBP vs placebo / mean change in systolic blood pressure (SBP) vs baseline, mean ± SE / Difference in mean changes of SBP vs naproxen 500 mg: 13-week study; for mean change in systolic blood pressure (SBP) vs baseline, mean ± SE: osteoarthritic hypertensive patients on RAS blockers alone or with a diuretic; for blood pressure elevation / BP destabilization (result in words): osteoarthritic hypertensive patients treated with at least a renin-angiotensin system blocking agent
Description: Effects of 4-(nitrooxy)butyl(2S)-2-(6-methoxy-2-naphthyl)propanoate (naproxcinod) and naproxen on systolic blood pressure (SBP).
The effects of two twice daily drug regimens (375 mg bid and 750 mg bid) of 4-(nitrooxy)butyl(2S)-2-(6-methoxy-2-naphthyl)propanoate (naproxcinod) on systolic blood pressure (SBP) vs. naproxen and placebo were studied in a 13-week double-blind, randomized clinical trial involving 207 osteoarthritic patients and hypertension treated with renin-angiotensin system blockers alone or in combination with a diuretic.
Patients were sequentially randomized in a 1:1:1:1 ratio using a validated remote automated system to receive for the 13-week study treatment period one of 4 treatment groups: • naproxcinod 750 mg twice daily, • naproxcinod 375 mg twice daily, • naproxen 500 mg (equimolar dose of naproxcinod 750 mg) twice daily, or • placebo twice daily.
The office SBP was measured in a standardized fashion by mercury column or aneroid device in supine position, at rest, at baseline and 2, 6, and 13 weeks after study treatment initiation. SBP measurements were to be performed 2 to 4 hours post-morning dose.
The comparability of the patients in the 4 treatment groups was determined from the demographic data and baseline BP values.

Structure (SMILES) | Difference in mean changes of SBP vs placebo (500 mg twice daily) | mean change in systolic blood pressure (SBP) vs baseline, mean ± SE (500 mg twice daily) | Difference in mean changes of SBP vs naproxen 500 mg (375 mg twice daily) | Difference in mean changes of SBP vs placebo (375 mg twice daily) | mean change in systolic blood pressure (SBP) vs baseline, mean ± SE (375 mg twice daily) | Difference in mean changes of SBP vs naproxen 500 mg (750 mg twice daily) | Difference in mean changes of SBP vs placebo (750 mg twice daily) | mean change in systolic blood pressure (SBP) vs baseline, mean ± SE (750 mg twice daily) | blood pressure elevation / BP destabilization (result in words) | blood pressure elevation / BP destabilization (result in words) (listed as 4-(nitrooxy)butyl(2S)-2-(6-methoxy-2-naphthyl)propanoate)
COc1ccc2cc([C@H](C)C(=O)O)ccc2c1 [naproxen, reference compound] | 6.1** mmHg | 1.5 ± 1.9 mmHg | – | – | – | – | – | – | – | –
COc1ccc2cc([C@H](C)C(=O)OCCCCO[N+](=O)[O-])ccc2c1 [naproxcinod, 4-(nitrooxy)butyl(2S)-2-(6-methoxy-2-naphthyl)propanoate] | – | – | −4.2 mmHg | 1.9 mmHg | −2.7 ± 1.7 mmHg | −6.5 mmHg | −0.4* mmHg | −5.0 ± 1.7 mmHg | less BP destabilization compared to naproxen | does not induce blood pressure elevation
